In patent US20250163074A1, “CDK Inhibitors And Their Use As Pharmaceuticals” (Prelude Therapeutics Incorporated, priority 2020, published 2025):
Where two headings read alike, the source gives them in different places.

Tests used:
CDK6/Cyclin D1 = CDK6/Cyclin D1 (Homo sapiens (Human), UniProt Q00534); assay: CDK6/CyclinD1 enzymatic activity assay (TR-FRET); assay type: biochemical; conditions: CDK6/Cyclin D1 1 nM, ATP 250 μM, read-out: CDK6_D1 IC50
Description: CDK6/CyclinD1 Enzymatic Activity Assay
(§1) The inhibitory activity of compounds was evaluated in vitro using TR-FRET assay with white 384-well low volume microplate (Greiner Bio-One). CDK6/Cyclin D1 catalyzed phosphorylation of peptide in the presence and absence of compounds was measured and used in IC50 determination. Recombinant protein complex CDK6/Cyclin D1, expressed from insect cell, was purchased from ProQinase. Testing compounds were dissolved in DMSO at 0.1 mM and tested in 9-dose IC50 mode. The reaction mixture was prepared by mixing CDK6/Cyclin D1 (1 nM final), ULight-4E-BP1 (100 nM final, Perkinelmer, TRF0128-D), and ATP (250 μM final) in assay buffer (20 mM of HEPES pH 7.4, 1 mM of EGTA, 0.05% BSA, 0.005% Tween 20, and 1 mM TCEP). The compound of interest in DMSO was added to each well in 3-fold serial dilution by dispenser (TECAN D300E). After 20 minutes preincubation at room temperature, 0.1 μL MgCl2 (10 mM final) was added to initiate the reaction. Following a 60 minutes incubation at 37° C., the reaction was stopped by addition of 2 μL of quenching buffer consisting of Lance detection buffer (Perkinelmer CR97-100C), 2 nM LANCE Ultra Europium-anti-P-4E-BP1 (Perkinelmer, TRF0216-D), 10 mM EDTA, and incubate at room temperature for additional 60 minutes in dark. The reaction signal was measured by Envision multimode plate reader (PerkinElmer, 2102-0010). IC50 values were determined by fitting the data to the standard 4 parameters with Hill Slope using GraphPad Prism software.

[1] = test system: MCF7 adenocarcinoma cell line; assay: Cell proliferation studies in MCF7 cells (ATP-Lite); assay type: cell-based; conditions: 10 days incubation, cell viability by ATP-Lite luminescence, read-out: PROLIFERATION_CTG_MCF7 IC50
Description: Cell Proliferation Studies in MCF7 Cells
Cell proliferation studies were conducted in MCF7 adenocarcinoma cell line. Cells were maintained in DMEM (Corning, Catalog #: 10-013-CV) supplemented with 10% v/v FBS (Gibco, Catalog #: 26140-079), 1% v/v Penicillin Streptomycin (Gibco, Catalog #15140-122) Cells were seeded in 384-well plates at a density of 100 or 200 cells/well. Compounds dissolved in DMSO were plated in quadruplicate using a digital dispenser (D300E, Tecan) and tested on a 9-point 3-fold serial dilution. Cells were incubated for 10 days in a 37° C. active humidified incubator at 5% CO2. A media exchange and second compound addition were performed on day 5. Cell viability was measured using the ATP-Lite 1-Step Luminescence reagent (Perkin Elmer, Catalog #: 6016731) as per manufacturer's instructions. Luminescence signal was measured with a multimode plate reader (Envision 2105, Perkin Elmer). Raw data files were imported to Dotmatics Screening Ultra for IC50 analysis. Luminescence values were normalized to both background and DMSO controls to obtain a percentage of viable cells relative to DMSO vehicle control.

CDK4/Cyclin D1 = CDK4/Cyclin D1 (Homo sapiens (Human), UniProt P11802); assay: CDK4/CyclinD1 enzymatic activity assay (TR-FRET); assay type: biochemical; conditions: CDK4/CyclinD1 1 nM, ATP 2 mM, read-out: CDK4_D1 IC50
Description: CDK4/CyclinD1 Enzymatic Activity Assay
as §1, with “Bio-One). CDK4/Cyclin” for “Bio-One). CDK6/Cyclin”, “was measured.” for “was measured and used in”, “complex CDK4/Cyclin” for “complex CDK6/Cyclin”, “mixing CDK4/CyclinD1” for “mixing CDK6/Cyclin D1”, “ATP (2 mM” for “ATP (250 μM”, “temperature,” for “temperature, 0.1 μL”

CDK4/Cyclin D1, sequence (P11802 whole entry): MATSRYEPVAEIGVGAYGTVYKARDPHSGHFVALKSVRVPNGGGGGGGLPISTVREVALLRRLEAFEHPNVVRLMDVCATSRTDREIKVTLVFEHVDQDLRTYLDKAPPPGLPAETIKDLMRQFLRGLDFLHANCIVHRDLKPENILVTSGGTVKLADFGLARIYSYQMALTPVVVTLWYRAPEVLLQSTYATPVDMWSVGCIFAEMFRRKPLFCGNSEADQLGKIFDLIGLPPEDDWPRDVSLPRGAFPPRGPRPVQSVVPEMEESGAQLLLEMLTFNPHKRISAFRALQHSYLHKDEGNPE
CDK4/Cyclin D1, sequence (P24385 whole entry partner): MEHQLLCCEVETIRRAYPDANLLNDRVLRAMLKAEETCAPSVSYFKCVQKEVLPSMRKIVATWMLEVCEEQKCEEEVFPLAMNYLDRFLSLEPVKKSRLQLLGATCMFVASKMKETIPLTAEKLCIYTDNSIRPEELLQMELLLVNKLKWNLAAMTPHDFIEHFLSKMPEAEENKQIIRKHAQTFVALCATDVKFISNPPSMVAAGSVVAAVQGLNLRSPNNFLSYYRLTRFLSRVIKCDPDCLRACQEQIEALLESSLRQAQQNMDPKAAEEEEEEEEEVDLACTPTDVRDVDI
CDK6/Cyclin D1, sequence (Q00534 whole entry): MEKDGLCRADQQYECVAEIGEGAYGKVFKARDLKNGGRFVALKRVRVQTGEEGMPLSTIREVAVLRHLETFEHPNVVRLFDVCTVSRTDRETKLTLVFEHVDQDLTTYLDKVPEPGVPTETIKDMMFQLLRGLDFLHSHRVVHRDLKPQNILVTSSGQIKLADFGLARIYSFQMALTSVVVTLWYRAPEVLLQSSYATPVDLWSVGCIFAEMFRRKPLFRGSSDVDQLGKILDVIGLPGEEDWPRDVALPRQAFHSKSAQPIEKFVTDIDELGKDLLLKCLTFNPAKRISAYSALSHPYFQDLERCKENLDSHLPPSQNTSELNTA
CDK6/Cyclin D1, sequence (P24385 whole entry partner): as the sequence (P24385 whole entry partner) above

| IC50 (CDK6/Cyclin D1) [nM] | IC50 ([1]; Homo sapiens, 240 h) [nM] | IC50 (CDK4/Cyclin D1) [nM] | IC50 [1] [nM] | Structure (SMILES) |
| --- | --- | --- | --- | --- |
| 20 to 200 | ≤ 20 | ≤ 20 | – | CN1CCC(c2ccc(Nc3ncc(F)c(-c4cc5c(s4)C4(CCCCC4)CN(C)C5=O)n3)nc2)CC1 [Example 5, 2′-(5-Fluoro-2-((5-(1-methylpiperidin-4-yl)pyridin-2-yl)amino)pyrimidin-4-yl)-5′-methyl-5′,6′-dihydro-4′H-spiro[cyclohexane-1,7′-thieno[3,2-c]pyridin]-4′-one] |
| ≤ 20 | – | ≤ 20 | 20 to 200 | CN1CCC(c2ccc(Nc3ncc(F)c(-c4cc5c(s4)C4(CC4)N(C)C5=O)n3)nc2)CC1 [Example 8] |
| ≤ 20 | 20 to 200 | ≤ 20 | – | CN1CCC(c2ccc(Nc3ncc(F)c(-c4sc5c(c4Cl)C(=O)N(C)C54CC4)n3)nc2)CC1 [Example 9, 3′-chloro-2′-(5-Fluoro-2-((5-(1-methylpiperidin-4-yl)pyridin-2-yl)amino)pyrimidin-4-yl)-5′-methylspiro[cyclopropane-1,6′-thieno[2,3-c]pyrrol]-4′(5′H)-one] |
| ≤ 20 | 20 to 200 | ≤ 20 | – | CN1CCC(c2ccc(Nc3ncc(F)c(-c4sc5c(c4C(F)(F)F)C(=O)N(C)C54CC4)n3)nc2)CC1 [Example 10, 2′-(5-Fluoro-2-((5-(1-methyl-piperidin-4-yl)pyridin-2-yl)amino)pyrimidin-4-yl)-5′-methyl-3′-(trifluoromethyl)spiro[cyclopropane-1,6′-thieno[2,3-c]pyrrol]-4′(5′H)-one] |
| ≤ 20 | 20 to 200 | ≤ 20 | – | CCN1CCN(Cc2ccc(Nc3ncc(F)c(-c4sc5c(c4C)C(=O)N(C)C54CC4)n3)nc2)CC1 [Example 13, 2′-(2-((5-((4-Ethylpiperazin-1-yl)methyl)pyridin-2-yl)amino)-5-fluoropyrimidin-4-yl)-3′,5′-dimethylspiro[cyclopropane-1,6′-thieno[2,3-c]pyrrol]-4′(5′H)-one] |
| ≤ 20 | 20 to 200 | ≤ 20 | – | CCN1CC2(C1)CN(c1ccc(Nc3ncc(F)c(-c4cc5c(s4)C4(CCCC4)N(CC)C5=O)n3)nc1)C2 [Example 21, 5′-Ethyl-2′-(2-((5-(6-ethyl-2,6-diazaspiro[3.3]heptan-2-yl)pyridin-2-yl)amino)-5-fluoropyrimidin-4-yl)spiro[cyclopentane-1,6′-thieno[2,3-c]pyrrol]-4′(5′H)-one] |
| 20 to 200 | 20 to 200 | ≤ 20 | – | CCN1C(=O)c2cc(-c3nc(Nc4ccc(C5CCN(C)CC5)cn4)ncc3F)sc2C12CCCC2 [Example 22, 5′-Ethyl-2′-(5-fluoro-2-((5-(1-methylpiperidin-4-yl)pyridin-2-yl)amino)pyrimidin-4-yl)spiro[cyclopentane-1,6′-thieno[2,3-c]pyrrol]-4′(5′H)-one] |
| ≤ 20 | 20 to 200 | ≤ 20 | – | CCN1CCC(c2ccc(Nc3ncc(F)c(-c4cc5c(s4)C4(CCCC4)N(C)C5=O)n3)nc2)CC1 [Example 23, 2′-(2-((5-(1-Ethylpiperidin-4-yl)pyridin-2-yl)amino)-5-fluoropyrimidin-4-yl)-5′-methylspiro[cyclopentane-1,6′-thieno[2,3-c]pyrrol]-4′(5′H)-one] |
| ≤ 20 | ≤ 20 | ≤ 20 | – | CN1CCC(c2ccc(Nc3ncc(F)c(-c4sc5c(c4C(F)(F)F)C(=O)N(C)C54CCCC4)n3)nc2)CC1 [Example 26, 2′-(5-Fluoro-2-((5-(1-methylpiperidin-4-yl)pyridin-2-yl)amino)pyrimidin-4-yl)-5′-methyl-3′-(trifluoromethyl)spiro[cyclopentane-1,6′-thieno[2,3-c]pyrrol]-4′(5′H)-one] |
| ≤ 20 | ≤ 20 | ≤ 20 | – | CN1CCC(c2ccc(Nc3ncc(F)c(-c4sc5c(c4Cl)C(=O)N(C)C54CCCC4)n3)nc2)CC1 [Example 27, 3′-Chloro-2′-(5-fluoro-2-((5-(1-methylpiperidin-4-yl)pyridin-2-yl)amino)pyrimidin-4-yl)-5′-methylspiro[cyclopentane-1,6′-thieno[2,3-c]pyrrol]-4′(5′H)-one] |
| ≤ 20 | 20 to 200 | ≤ 20 | – | Cc1c(-c2nc(Nc3ccc(C4CCCN(C)C4)cn3)ncc2F)sc2c1C(=O)N(C)CC21CC1 (stereo not shown) [Example 30, 2′-(5-Fluoro-2-((5-(1-methyl-piperidin-3-yl)pyridin-2-yl)amino)pyrimidin-4-yl)-3′,5′-dimethyl-5′,6′-dihydro-4′H-spiro[cyclopropane-1,7′-thieno[3,2-c]pyridin]-4′-one] |
| ≤ 20 | 20 to 200 | ≤ 20 | – | Cc1c(-c2nc(Nc3ccc(C4CCN(C5CCOC5)CC4)cn3)ncc2F)sc2c1C(=O)N(C)CC21CC1 (stereo not shown) [Example 32, 2′-(5-Fluoro-2-((5-(1-(tetrahydrofuran-3-yl)piperidin-4-yl)pyridin-2-yl)amino)pyrimidin-4-yl)-3′,5′-dimethyl-5′,6′-dihydro-4′H-spiro[cyclopropane-1,7′-thieno[3,2-c]pyridin]-4′-one] |
| ≤ 20 | ≤ 20 | ≤ 20 | – | Cc1c(-c2nc(Nc3ccc(N4CC5(C4)CN(C(C)C)C5)cn3)ncc2F)sc2c1C(=O)N(C)CC21CC1 [Example 34, 2′-(5-Fluoro-2-((5-(6-isopropyl-2,6-diazaspiro[3.3]heptan-2-yl)pyridin-2-yl)amino)pyrimidin-4-yl)-3′,5′-dimethyl-5′,6′-dihydro-4′H-spiro[cyclopropane-1,7′-thieno[3,2-c]pyridin]-4′-one] |
| ≤ 20 | 20 to 200 | ≤ 20 | – | Cc1c(-c2nc(Nc3ccc(N4CCC5(CC4)CN(C)C5)cn3)ncc2F)sc2c1C(=O)N(C)CC21CC1 [Example 36, 2′-(5-Fluoro-2-((5-(2-methyl-2,7-diazaspiro[3.5]nonan-7-yl)pyridin-2-yl)amino)pyrimidin-4-yl)-3′,5′-dimethyl-5′,6′-dihydro-4′H-spiro[cyclopropane-1,7′-thieno[3,2-c]pyridin]-4′-one] |
| – | 20 to 200 | ≤ 20 | – | CN1CC2(CCCC2)c2sc(-c3nc(Nc4ccc(N5CCN6CCC5CC6)cn4)ncc3F)cc2C1=O [Example 64, 2-[2-[[5-(1,4-Diazabicyclo[3.2.2]nonan-4-yl)pyridin-2-yl]amino]-5-fluoropyrimidin-4-yl]-5-methylspiro[6H-thieno[3,2-c]pyridine-7,1′-cyclopentane]-4-one] |
| – | 20 to 200 | ≤ 20 | – | Cc1c(-c2nc(Nc3ccc(C4CCN(C(C)C)CC4)nn3)ncc2F)sc2c1C(=O)N(C)CC21CC1 [Example 83, 2′-(5-Fluoro-2-((6-(1-isopropylpiperidin-4-yl)pyridazin-3-yl)amino)pyrimidin-4-yl)-3′,5′-dimethyl-5′,6′-dihydro-4′H-spiro[cyclopropane-1,7′-thieno[3,2-c]pyridin]-4′-one] |
